According to ChEMBL document CHEMBL1201862, “PubChem BioAssay data set” (2004):
Calls of active or inactive are those of the source.

Assays:
HeLa = assay: viability loss in HeLa cells – cell-based, ATP luminescence, cherry-pick samples, cytotoxicity control, dose response (AID 687004); format: functional; details: Homo sapiens
[1] = viability loss in HeLa cells – cytotoxicity control for MgcRacGAP inhibitor project, dose response (AID 624300); format: functional
[2] = molecular target: T1, Rac GTPase-activating protein 1 (Homo sapiens, UniProt Q9H0H5); assay: blockers of MgcRacGAP-driven Rac1 GTP hydrolysis – biochemical, ADP Hunter fluorescence, primary and confirmatory, confirmation (AID 624330); format: functional
T1 sequence (Q9H0H5 whole entry): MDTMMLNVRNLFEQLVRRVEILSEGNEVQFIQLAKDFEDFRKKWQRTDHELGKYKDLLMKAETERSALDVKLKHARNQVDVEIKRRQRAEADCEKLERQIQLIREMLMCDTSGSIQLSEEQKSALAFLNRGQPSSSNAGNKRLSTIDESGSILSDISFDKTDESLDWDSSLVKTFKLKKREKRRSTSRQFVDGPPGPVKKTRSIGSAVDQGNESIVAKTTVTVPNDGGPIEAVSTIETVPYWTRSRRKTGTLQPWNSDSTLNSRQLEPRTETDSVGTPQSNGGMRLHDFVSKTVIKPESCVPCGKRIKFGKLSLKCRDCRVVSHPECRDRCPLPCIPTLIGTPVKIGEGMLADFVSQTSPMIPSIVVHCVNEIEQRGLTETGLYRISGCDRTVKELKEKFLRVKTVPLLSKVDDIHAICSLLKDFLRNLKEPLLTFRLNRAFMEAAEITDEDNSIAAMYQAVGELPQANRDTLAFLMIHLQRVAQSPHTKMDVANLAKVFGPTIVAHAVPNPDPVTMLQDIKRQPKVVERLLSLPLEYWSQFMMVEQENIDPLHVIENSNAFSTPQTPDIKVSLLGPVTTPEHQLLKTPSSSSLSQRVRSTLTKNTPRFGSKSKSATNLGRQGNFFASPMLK

Beta-galactosidase = Beta-galactosidase (Escherichia coli, UniProt Q8VNN2); assay: Dose response counterscreen for EBI2 assay utilizing the enzyme, b-galactosidase.; format: functional
Major prion protein = Major prion protein (Homo sapiens, UniProt P04156); format: functional, cell-based
cells [3] = assay: cells
[4] = HGIII-sPLA2 enzyme inhibition potency – biochemical, QFRET, IC50, dose response (AID 743457);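 also: green fluorescence rise as the enzyme cleaves BODIPY PC-A2 in liposomes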
[5] = test system: Streptococcus sp. 'group A'; assay: Streptococcus pyogenes SK(-)GAS viability under kanamycin – luminescence, BacTiterGlo, confirmation, counter-screen for streptokinase expression inhibitor project, dose response (AID 1900); format: functional, organism-based
Streptococcus = assay: GAS UMAA2166 growth inhibition – luminescence, BacTiterGlo, counter-screen for streptokinase expression inhibitor project, dose response (AID 1915); format: functional, organism-based;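 also: potency for reduction of bacterial viability or growth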
[6] = molecular target: T2, Trace amine-associated receptor 1 (Homo sapiens, UniProt Q96RJ0); assay: Counterscreen for agonists of the human trace amine associated receptor 1 (hTAAR1): Fluorescence-based cell-based high throughput dose response assay to identify hTAAR1 agonist that also desensitize TAAR1 receptor response.; format: functional
T2 sequence (Q96RJ0 whole entry): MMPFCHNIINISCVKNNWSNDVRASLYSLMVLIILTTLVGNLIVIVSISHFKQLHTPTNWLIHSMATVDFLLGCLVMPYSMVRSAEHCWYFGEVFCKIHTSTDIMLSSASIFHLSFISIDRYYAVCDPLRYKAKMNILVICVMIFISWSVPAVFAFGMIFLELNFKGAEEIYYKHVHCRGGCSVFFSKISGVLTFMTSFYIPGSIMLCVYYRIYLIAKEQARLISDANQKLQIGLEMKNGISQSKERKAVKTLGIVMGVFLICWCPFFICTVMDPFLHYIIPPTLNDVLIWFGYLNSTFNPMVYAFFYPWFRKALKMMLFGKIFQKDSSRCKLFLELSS

cells [7] = format: functional, cell-based
[8] = molecular target: T2, Trace amine-associated receptor 1; assay: Fluorescence-based cell-based high throughput dose response assay to identify agonists of the human trace amine associated receptor 1 (TAAR1).; format: functional
cells [9] = format: functional, cell-based; remark: listed apart in the source
[10] = molecular target: Mitogen-activated protein kinase 10 (Homo sapiens, UniProt P53779); assay: Dose response biochemical screening assay for inhibitors of c-Jun N-Terminal Kinase 3 (JNK3). [Related pubchem assays: 746 ]
[11] = Trypanosoma cruzi growth suppression in host cells – NIH3T3 host cells, beta-gal luminescence, confirmation (AID 2044); format: functional, cell-based;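 also: intracellular parasites grown in NIH/3T3 mouse fibroblasts as host cells; luminescent beta-galactosidase reporter signal from transgenic T. cruzi replicating inside host cells; inhibitors lower the luminescence signal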
[12] = NIH3T3 cell viability loss – ATP luminescence, mouse fibroblasts, counter-screen, dose response (AID 2010); format: functional, cell-based;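 also: cells exposed to compound for about 90 hours before reading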
[13] = molecular target: T3, Corticotropin-releasing factor receptor 2/Corticotropin-releasing factor-binding protein (Homo sapiens, UniProt P24387+Q13324); assay: Dose Response confirmation of uHTS hits for small molecule antagonists of the CRF-binding protein and CRF-R2 receptor complex.; format: functional; details: read-out: IC50_Mean
T3 sequence (Q13324 whole entry): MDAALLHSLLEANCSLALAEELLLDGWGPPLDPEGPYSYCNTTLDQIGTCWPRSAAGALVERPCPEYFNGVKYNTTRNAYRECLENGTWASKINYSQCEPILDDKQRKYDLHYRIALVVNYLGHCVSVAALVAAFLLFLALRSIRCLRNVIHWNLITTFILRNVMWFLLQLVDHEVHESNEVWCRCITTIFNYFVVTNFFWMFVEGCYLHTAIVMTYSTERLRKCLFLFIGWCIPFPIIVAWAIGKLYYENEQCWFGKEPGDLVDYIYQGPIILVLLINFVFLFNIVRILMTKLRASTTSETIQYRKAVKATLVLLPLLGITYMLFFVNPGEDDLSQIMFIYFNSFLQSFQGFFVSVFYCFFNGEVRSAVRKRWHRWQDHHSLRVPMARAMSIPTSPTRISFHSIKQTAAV
T3 sequence (P24387 whole entry): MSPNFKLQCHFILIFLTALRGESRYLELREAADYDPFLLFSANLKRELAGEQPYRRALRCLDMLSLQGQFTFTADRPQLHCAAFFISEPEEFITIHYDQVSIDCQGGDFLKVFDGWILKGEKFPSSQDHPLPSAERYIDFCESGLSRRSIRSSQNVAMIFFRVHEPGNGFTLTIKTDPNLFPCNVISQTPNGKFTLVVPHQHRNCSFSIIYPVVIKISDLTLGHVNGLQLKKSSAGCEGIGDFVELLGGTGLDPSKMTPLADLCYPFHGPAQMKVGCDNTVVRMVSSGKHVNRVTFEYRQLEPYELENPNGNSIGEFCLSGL

[14] = molecular target: DNA repair protein RAD52 homolog (Homo sapiens, UniProt P43351); format: functional, biochemical
[15] = molecular target: T3, Corticotropin-releasing factor receptor 2/Corticotropin-releasing factor-binding protein; assay: activators of CRF receptor 2 with binding protein – uHTS hits, confirmation (AID 602473); format: functional; details: read-out: EC50_Mean
[16] = intracellular Trypanosoma cruzi inhibitors in host cells – cell-based, plate reader, cherry-pick samples, set 3, dose response (AID 651818); format: functional;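 also: compounds incubated with infected cells for about four days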
[17] = mouse fibroblast viability loss – cell-based, cherry-pick samples, set 2, cytotoxicity control for T. cruzi growth inhibitor project, dose response (AID 651817); format: functional; details: NIH3T3
HEK293 = assay: cells; format: functional, cell-based; details: Homo sapiens
[18] = molecular target: T4, Nuclear receptor subfamily 0 group B member 1 (Homo sapiens, UniProt P51843); assay: Luminescence-based cell-based high throughput dose response assay for inhibitors of the orphan nuclear receptor subfamily 0, group B, member 1 (DAX1; NR0B1). [Related pubchem assays (depositor defined):AID504766, AID504790]; format: functional
T4 sequence (P51843 whole entry): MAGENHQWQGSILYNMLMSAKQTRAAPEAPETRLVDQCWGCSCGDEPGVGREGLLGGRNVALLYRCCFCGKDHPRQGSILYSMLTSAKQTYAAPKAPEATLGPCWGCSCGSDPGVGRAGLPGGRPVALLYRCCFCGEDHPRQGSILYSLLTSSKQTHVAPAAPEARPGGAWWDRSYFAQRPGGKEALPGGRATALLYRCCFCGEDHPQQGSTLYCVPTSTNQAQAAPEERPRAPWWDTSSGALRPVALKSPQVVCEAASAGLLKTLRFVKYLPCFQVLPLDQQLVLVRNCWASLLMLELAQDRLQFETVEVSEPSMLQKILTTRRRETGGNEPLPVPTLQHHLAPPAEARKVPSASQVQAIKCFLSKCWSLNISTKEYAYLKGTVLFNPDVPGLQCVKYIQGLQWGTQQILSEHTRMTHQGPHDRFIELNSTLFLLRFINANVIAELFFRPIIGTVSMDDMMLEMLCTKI

[19] = molecular target: T5, Heat shock factor protein 1 (Mus musculus, UniProt P38532); assay: decrease of HSF1-responsive luciferase luminescence – cell-based, NIH3T3, dose retest, confirmation (AID 2382); format: functional;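 also: NIH3T3 fibroblasts with HSF1-driven luciferase reporter stressed by proteasome inhibitor MG132; luminescence from HSF1-driven luciferase expression after 8 hours of MG132 stress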
T5 sequence (P38532 whole entry): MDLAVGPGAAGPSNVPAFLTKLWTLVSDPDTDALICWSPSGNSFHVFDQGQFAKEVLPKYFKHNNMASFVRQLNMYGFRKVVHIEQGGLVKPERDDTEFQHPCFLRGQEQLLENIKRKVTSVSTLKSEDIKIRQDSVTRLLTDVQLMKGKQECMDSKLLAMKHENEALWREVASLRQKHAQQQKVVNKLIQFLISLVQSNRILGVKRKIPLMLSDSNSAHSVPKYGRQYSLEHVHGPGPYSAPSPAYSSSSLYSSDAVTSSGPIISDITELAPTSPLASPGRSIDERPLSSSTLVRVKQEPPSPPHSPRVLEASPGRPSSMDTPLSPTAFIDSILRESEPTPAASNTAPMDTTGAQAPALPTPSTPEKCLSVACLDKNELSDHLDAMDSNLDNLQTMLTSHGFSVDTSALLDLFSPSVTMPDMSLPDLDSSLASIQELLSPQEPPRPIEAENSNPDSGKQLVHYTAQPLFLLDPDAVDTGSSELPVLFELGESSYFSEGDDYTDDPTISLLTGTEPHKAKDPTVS

[20] = viability loss in HepG2 hepatoma cells – cell-based, ATP luminescence, cherry-pick, activator set 2, cytotoxicity control, dose response (AID 1053143); format: functional
[21] = HepG2 cell cytotoxicity, dose response, cytotoxicity control for non-replicating M. tuberculosis project (AID 489018); format: functional; details: Mycobacterium tuberculosis
[22] = Vero E6 cell cytotoxicity, dose response, cytotoxicity control for non-replicating M. tuberculosis project, secondary assay (AID 492998); format: functional, VeroE6; details: Vero C1008
H4 = assay: Luminescence Cell-Based Dose Response HTS to Identify Activators of 5'UTR Stem-Loop Driven Prion Protein mRNA Translation in H4 Neuroglioblastoma Cells. [Related pubchem assays: 1829 (Project Summary), 1814 (Primary HTS)]; format: functional; details: Homo sapiens
[23] = Luminescence Cell-Based Dose Response HTS to Identify Activators of Luciferase Translation or Activity in H4 […] Cells. [Related pubchem assays: 1829 (Project Summary), 1814 (Primary HTS)]; format: functional
[24] = THP-1 cell cytotoxicity, dose response, cytotoxicity control for non-replicating M. tuberculosis project (AID 489025); format: functional
Cytochrome P450 2D6 = Cytochrome P450 2D6 (Homo sapiens, UniProt P10635);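 also: CYP2D6 member of a cytochrome P450 panel assay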

Cc1ccc2cc(NC(=O)c3ccccc3)ccc2n1
AC50 (HeLa): > 52 µM (inactive)

CC1CC(=O)N(c2ccc(NCCc3ccc(O)cc3)c([N+](=O)[O-])c2)C1=O (centres undefined)
CC50 [1]: 100 µM (active)
IC50 [2]: 52.9 µM (active)

COc1ccc(-c2cn(-c3ccc(OC)cc3)c(S)n2)cc1
IC50 (Beta-galactosidase): > 80 µM (inactive)

Cn1c(N2CCC(C(N)=O)CC2)nc2c1c(=O)n(Cc1cccc(Br)c1)c(=O)n2C
IC50 (Major prion protein): 8.38 µM (active)
IC50 (cells [3]): > 138 µM (inactive)

COc1ccc(/C=C/C(=O)NC(=S)NNC(=O)c2ccco2)cc1
IC50 [4]: 34.9 µM (inactive)
EC50 [5]: 1.72 µM (active)
EC50 (Streptococcus): 3.29 µM (active)

CC1(C)CC(=O)C(C(=O)/C=C/NCCc2ccccc2)C(=O)C1
IC50 [6]: 7.8 µM (active)
IC50 (cells [7]): > 29.9 µM (inactive)
EC50 [8]: 1.46 µM (active)
EC50 (cells [9]): > 29.9 µM (inactive)

COC(=O)c1sccc1NC(=O)C1CC=CCC1C(=O)O (centres undefined)
IC50 (Major prion protein): 2.48 µM (active)
IC50 [10]: 19.8 µM (not active)
IC50 (cells [3]): > 138 µM (inactive)

Cc1ccc(S(=O)(=O)N2CCN(C(=O)COc3ccc(Br)cc3)CC2)cc1
IC50 (Beta-galactosidase): > 80 µM (inactive)

Fc1ccc(-n2c(S)nnc2-c2ccc3c(c2)OCO3)cc1Cl
IC50 [4]: > 122 µM (inactive)

COCc1cc([S+]([O-])c2ccc(Cl)cc2)nc(C)n1 (centres undefined)
EC50 [11]: 1.78 µM (active)
CC50 [1]: 95 µM (active)
IC50 [2]: 87.8 µM (active)
EC50 [12]: > 60 µM (not active)

Cc1ccc(-c2c[n+](CC(=O)Nc3nc(-c4ccc(F)cc4)cs3)c3n2CCC3)cc1
IC50 [13]: > 47.1 µM (inactive)
AC50 [14]: 11.2 µM (active)
EC50 [15]: > 53 µM (inactive)

C[C@H](CO)N1C[C@H](C)[C@@H](CN(C)Cc2ccccc2)Oc2c(NC(=O)c3ccncc3)cccc2C1=O
AC50 [16]: 0.179 µM (active)
AC50 [17]: 39 µM (inactive)

Nc1ccccc1C(=O)NNC1=C(C(=O)C(F)(F)F)CCC1
IC50 (HEK293): > 2.5 µM (active)
IC50 [18]: > 67.5 µM (inactive)
EC50 [19]: 36.6 µM (active)
AC50 [20]: 26 µM (active)
CC50 [21]: > 20 µM (active)
CC50 [22]: > 20 µM (active)
EC50 (H4): 21.7 µM (active)
EC50 [23]: 39.2 µM (active)
CC50 [24]: 14.1 µM (active)

C[C@H](CO)N1C[C@H](C)[C@H](CN(C)S(=O)(=O)c2ccc(Cl)cc2)Oc2c(NC(=O)c3nc4ccccc4s3)cccc2C1=O
AC50 [17]: 21.9 µM (active)

CO[C@H]1CN(C)C(=O)c2cc(NS(=O)(=O)CC(F)(F)F)ccc2OC[C@@H](C)N(Cc2cccnc2)C[C@@H]1C
AC50 (HeLa): 21.5 µM (active)

Cc1ccc2c(c1)-c1nc3ccccc3cc1/C2=N/C1CCCCC1
AC50 [20]: 22.2 µM (active)

c1ccc2cc(CC3=NCCN3)ccc2c1
IC50 [6]: 3.65 µM (active)
IC50 (cells [7]): > 30 µM (inactive)
AC50 (Cytochrome P450 2D6): 39.8 µM (inconclusive)
EC50 [8]: 0.322 µM (active)
EC50 (cells [9]): > 30 µM (inactive)
